From patent US11938228B2, “Particle-based multi-layer therapeutic delivery device and method” (Privo Technologies, Inc., priority 2017, dated 2024)

Assays:
[1] = permeation of fluorescent dye from two-layer device into buccal tissue (fluorescence microscopy); assay type: in vitro ADME; conditions: lamb buccal tissue, multi-layer device
Description: FIG. 2 is an image of an example multi-layered device according to example embodiments of the present invention. The device features two layers: one top layer including fluorescein isothiocyanate (FITC), a fluorescent dye which fluoresces green when examined under a fluorescent microscope, and one bottom layer including cyanine 5 (Cy5), a fluorescent dye which fluoresces red when examined under a fluorescent microscope.
FIGS. 5A-5C show three images taken from lamb buccal tissue at different time points.
In another representative embodiment, a multi-layered device may be used for the delivery of multiple agents over a prolonged period of time (FIG. 4, FIG. 5). If the example of mucositis is again used, multiple layers may include a pain mitigator in free form, a pain mitigator encapsulated within particles and an agent for the treatment of mucositis encapsulated within particles. The initial freeform layer is able to provide immediate pain relief, and the subsequent particle-encapsulated layers are capable of delivering particles beneath the tissue, where they further release their agents over a period of days, providing longer-term pain relief and treatment. FIG. 4 and FIG. 5 illustrate this effect. Fluorescence was used in order to provide detection. […]

[2] = release profile of encapsulated agent from chitosan particles (atomic absorption spectrometry); assay type: physicochemical; conditions: over 60 hours; particles with average diameter 500 to 2000 nm; detection by AAS
Description: FIG. 1 is a graph showing the release profile of one embodiment of particles having an average diameter in the range of 500 to 2000 nm which may be included within a multi-layered device according to embodiments of the present invention. […] Cisplatin was used for this experiment due to its use in the treatment of oral cancer and its ease of detection via atomic absorption spectrometry (AAS).
FIG. 1 is a graph showing the release profile of example particles having an average diameter in the range of 500 to 2000 nm. […] Cisplatin was used for this experiment due to its use in the treatment of oral cancer and its ease of detection via atomic absorption spectrometry (AAS).

Compound | permeation into tissue ([1]; after 30 minutes) | permeation into tissue ([1]; after 1 hour) | cisplatin released from particles [2] [%]
fluorescein isothiocyanate [FITC] | beginning to permeate the tissue | permeating deeper into the tissue | 
N.N.[Cl][Pt][Cl] [cisplatin] |  |  | 45
